Results as given in patent US11566007B2, “Ras inhibitors” (Revolution Medicines, Inc., priority 2019, dated 2023).
pEC50, pIC50: −log10 of the molar value. Where two headings read alike, the source gives them in different places.

Assays:
[1] = tested on: NCI-H358 cells (K-Ras G12C); assay: Potency assay: pERK in NCI-H358 cells; format: cell-based, human; conditions: Homo sapiens, NCI-H358; H358 KRAS G12C; read-out: pERK EC50
Summary of the method: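 Inhibition of cellular pERK after a 4 h treatment, detected by AlphaLISA or In-Cell Western. IC50 from a four-parameter concentration-response fit.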

K-Ras G13C = K-Ras G13C (Homo sapiens (Human), UniProt P01116+P62937, G13C); assay: Ras-Raf (BRAF RBD) disruption / FRET / MOA assay, KRAS G13C; format: biochemical; conditions: KRAS G13C; Ras-Raf disruption/FRET/MOA assay; read-out: IC50* KRAS G13C FRET data
Summary of the method: (§1)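 Compounds, top final concentration 30 μM in 10-point 3-fold series, incubated 3 hours at 25° C with nucleotide-loaded Ras, cyclophilin A and BRAF RBD.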

KRAS G12S = KRAS G12S (Homo sapiens (Human), UniProt P01116+P62937, G12S); assay: Ras-Raf (BRAF RBD) disruption / FRET / MOA assay, KRAS G12S; format: biochemical; conditions: Ras-Raf disruption/FRET/MOA assay; class symbols; read-out: KRAS G12S FRET data IC50
Summary of the method: as §1

NRAS Q61R = NRAS Q61R (Homo sapiens (Human), UniProt P01111+P62937, Q61R); assay: Ras-Raf (BRAF RBD) disruption / FRET / MOA assay, NRAS Q61R; format: biochemical
Summary of the method: (§2)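 TR-FRET disruption of nucleotide-loaded Ras binding to BRAF RBD via compound-driven ternary complex with cyclophilin A. Compound as 10-point 3-fold series from 30 μM final, 3 h at 25° C, then anti-His Eu-W1024 (10 nM) and anti-GST allophycocyanin (50 nM) for 1.5 h. IC50 from decreased FRET ratio versus DMSO.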

NRAS Q61K = NRAS Q61K (Homo sapiens (Human), UniProt P01111+P62937, Q61K); assay: Ras-Raf (BRAF RBD) disruption / FRET / MOA assay, NRAS Q61K; format: biochemical
Summary of the method: as §2

NRAS WT = NRAS WT (Homo sapiens (Human), UniProt P01111+P62937); assay: Ras-Raf (BRAF RBD) disruption / FRET / MOA assay, NRAS WT; format: biochemical
Summary of the method: as §2

[2] = NRAS Q61R, Ras-Raf disruption/FRET/MOA assay, read-out: IC50* NRAS Q61R FRET data
[3] = NRAS Q61K, Ras-Raf disruption/FRET/MOA assay, read-out: IC50* NRAS Q61K FRET data
[4] = read-out: IC50* NRAS WT FRET data

NRAS WT, sequence (P01111 whole entry): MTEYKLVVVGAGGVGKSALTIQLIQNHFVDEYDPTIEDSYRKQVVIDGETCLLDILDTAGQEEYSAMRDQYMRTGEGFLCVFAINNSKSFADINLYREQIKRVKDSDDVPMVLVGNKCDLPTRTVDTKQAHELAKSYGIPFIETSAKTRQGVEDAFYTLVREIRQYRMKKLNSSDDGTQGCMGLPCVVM
NRAS WT, sequence (P62937 whole entry): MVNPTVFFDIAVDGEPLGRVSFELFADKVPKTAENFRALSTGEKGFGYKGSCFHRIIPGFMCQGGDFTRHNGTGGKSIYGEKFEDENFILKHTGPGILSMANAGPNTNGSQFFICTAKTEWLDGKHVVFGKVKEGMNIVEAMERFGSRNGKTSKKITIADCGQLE
KRAS G12S, sequence (P01116-2 other isoform, or with tags, fused parts or gaps G12S): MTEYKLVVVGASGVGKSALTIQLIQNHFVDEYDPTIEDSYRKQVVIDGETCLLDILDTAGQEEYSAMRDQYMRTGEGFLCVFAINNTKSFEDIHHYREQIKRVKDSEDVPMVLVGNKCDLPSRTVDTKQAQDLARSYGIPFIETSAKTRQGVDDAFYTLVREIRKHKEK
KRAS G12S, sequence (P62937 whole entry): as the sequence (P62937 whole entry) above
NRAS Q61R, sequence (P01111 whole entry Q61R): as the sequence (P01111 whole entry) above, with Q61R counted along it
NRAS Q61R, sequence (P62937 whole entry): as the sequence (P62937 whole entry) above
NRAS Q61K, sequence (P01111 whole entry Q61K): as the sequence (P01111 whole entry) above, with Q61K counted along it
NRAS Q61K, sequence (P62937 whole entry): as the sequence (P62937 whole entry) above
K-Ras G13C, sequence (P01116-2 other isoform, or with tags, fused parts or gaps G13C): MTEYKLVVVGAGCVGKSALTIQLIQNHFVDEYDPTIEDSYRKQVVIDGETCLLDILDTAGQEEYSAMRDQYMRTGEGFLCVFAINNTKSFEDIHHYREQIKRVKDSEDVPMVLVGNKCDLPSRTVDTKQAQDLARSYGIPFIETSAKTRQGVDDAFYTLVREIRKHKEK
K-Ras G13C, sequence (P62937 whole entry): as the sequence (P62937 whole entry) above

Compound | pEC50 [1] | pIC50 (K-Ras G13C) | pIC50 (KRAS G12S) | pIC50 (NRAS Q61R; [2]) | pIC50 (NRAS Q61K; [3]) | pIC50 (NRAS WT; [4]) | pIC50 (NRAS Q61R) | pIC50 (NRAS Q61K) | pIC50 (NRAS WT; IC50* NRAS WT FRET data)
C=CC(=O)N1CC[C@H](C(=O)N(C)[C@H](C(=O)N[C@H]2CC3=NC=C(O3)c3ccc4c(c3)c(c(-c3cccnc3[C@H](C)OC)n4CC)CC(C)(C)COC(=O)[C@@H]3CCCN(N3)C2=O)C(C)C)C1 (atropisomer, axis not shown) [Example A278] | > 5.30 | 5.00 to 6.00 | 5.00 to 6.00 | < 5.00 | 5.00 to 6.00 | 5.00 to 6.00 |  |  | 
CCn1c(-c2cccnc2[C@H](C)OC)c2c3cc(ccc31)-c1cccc(c1)C[C@H](NC(=O)[C@H](C(C)C)N(C)C(=O)[C@H]1CCN(C(=O)C#CC(C)(C)N(C)C)C1)C(=O)N1CCC[C@H](N1)C(=O)OCC(C)(C)C2 (atropisomer, axis not shown) [Example A290] | > 5.30 | 5.00 to 6.00 | 5.00 to 6.00 | 5.00 to 6.00 | 5.00 to 6.00 | 5.00 to 6.00 |  |  | 
C=CS(=O)(=O)N1CCC2(CCN([C@H](C(=O)N[C@H]3Cc4cc(O)cc(c4)-c4ccc5c(c4)c(c(-c4cccnc4[C@H](C)OC)n5CC)CC(C)(C)COC(=O)[C@@H]4CCCN(N4)C3=O)C(C)C)C2=O)CC1 (atropisomer, axis not shown) [Example A299] | > 5.30 | > 8.00 | 7.00 to 8.00 | 6.00 to 7.00 | 7.00 to 8.00 | 7.00 to 8.00 |  |  | 
CO[C@@H](C)c1ncccc1-c1c2c3cc(ccc3n1CC(F)(F)F)-c1csc(n1)C[C@H](NC(=O)[C@@H](COC1CN(C(=O)C#CC(C)(C)N(C)C)C1)C(C)C)C(=O)N1CCC[C@H](N1)C(=O)OCC(C)(C)C2 (atropisomer, axis not shown) [Example A343] | > 5.30 | 5.00 to 6.00 | 5.00 to 6.00 | 5.00 to 6.00 | 5.00 to 6.00 | 5.00 to 6.00 |  |  | 
C=CC(=O)N1CC[C@H](C(=O)N(C)[C@H](C(=O)N[C@H]2Cc3cc(cc(C(F)F)c3)-c3ccc4c(c3)c(c(-c3cc(N5CCN(C)CC5)cnc3[C@H](C)OC)n4CC(F)(F)F)CC(C)(C)COC(=O)[C@@H]3CCCN(N3)C2=O)C(C)C)C1 (atropisomer, axis not shown) [Example A357] | > 5.30 | 6.00 to 7.00 | 6.00 to 7.00 | 6.00 to 7.00 | 5.00 to 6.00 | 6.00 to 7.00 |  |  | 
CO[C@@H](C)c1ncccc1-c1c2c3cc(ccc3n1CC(F)(F)F)-c1cccc(c1)C[C@H](NC(=O)[C@@H](COC1CN(C(=O)C#CC(C)(C)N(C)C)C1)C(C)C)C(=O)N1CCC[C@H](N1)C(=O)OCC(C)(C)C2 (atropisomer, axis not shown) [Example A376] | > 5.30 | 5.00 to 6.00 | 5.00 to 6.00 | < 5.00 | < 5.00 | 5.00 to 6.00 |  |  | 
C=CC(=O)N1C[C@H](C)N(C(=O)N(C)[C@H](C(=O)N[C@H]2Cc3nc(cs3)-c3ccc4c(c3)c(c(-c3cccnc3[C@H](C)OC)n4CC)CC(C)(C)COC(=O)[C@@H]3CCCN(N3)C2=O)C(C)C)C[C@@H]1C (atropisomer, axis not shown) [Example A385] | > 5.30 | 7.00 to 8.00 | 7.00 to 8.00 | 7.00 to 8.00 | 7.00 to 8.00 | 7.00 to 8.00 |  |  | 
C=CC(=O)N1CCC12CN(C(=O)N(C)[C@H](C(=O)N[C@H]1Cc3nc(cs3)-c3ccc4c(c3)c(c(-c3cccnc3[C@H](C)OC)n4CC)CC(C)(C)COC(=O)[C@@H]3CCCN(N3)C1=O)C(C)C)C2 (atropisomer, axis not shown) [Example A393] | > 5.30 | 6.00 to 7.00 | 6.00 to 7.00 | 6.00 to 7.00 | 6.00 to 7.00 | 6.00 to 7.00 |  |  | 
CCn1c(-c2cccnc2[C@H](C)OC)c2c3cc(ccc31)-c1cc(F)cc(c1)C[C@H](NC(=O)[C@@H](COC1CN(C(=O)C#CC(C)(C)N(C)C)C1)C(C)C)C(=O)N1CCC[C@H](N1)C(=O)OCC(C)(C)C2 (atropisomer, axis not shown) [Example A403] | > 5.30 | 5.00 to 6.00 | < 5.00 | < 5.00 | < 5.00 | < 5.00 |  |  | 
C=CC(=O)N1CC2(CCN2C(=O)N(C)[C@H](C(=O)N[C@H]2Cc3nc(cs3)-c3ccc4c(c3)c(c(-c3cccnc3[C@H](C)OC)n4CC)CC(C)(C)COC(=O)[C@@H]3CCCN(N3)C2=O)C(C)C)C1 (atropisomer, axis not shown) [Example A407] | > 5.30 | 6.00 to 7.00 | 6.00 to 7.00 | 7.00 to 8.00 | 7.00 to 8.00 | 7.00 to 8.00 |  |  | 
C=CC(=O)N1CC[C@H](C(=O)N(C)[C@H](C(=O)N[C@H]2CC3=NN=C(O3)c3ccc4c(c3)c(c(-c3cccnc3[C@H](C)OC)n4CC)CC(C)(C)COC(=O)[C@@H]3CCCN(N3)C2=O)C(C)C)C1 (atropisomer, axis not shown) [Example A447] | > 5.30 | 5.00 to 6.00 | 5.00 to 6.00 | < 5.00 | < 5.00 | 5.00 to 6.00 |  |  | 
C=CC(=O)Nc1ncc(C(=O)N(C)[C@H](C(=O)N[C@H]2Cc3cccc(c3)-c3ccc4c(c3)c(c(-c3cccnc3[C@H](C)OC)n4CC)CC(C)(C)COC(=O)[C@@H]3CCCN(N3)C2=O)C(C)C)n1C (atropisomer, axis not shown) [Example A474] | > 5.30 | > 8.00 | 5.00 to 6.00 | 5.00 to 6.00 | 5.00 to 6.00 | 5.00 to 6.00 |  |  | 
C=CC(=O)N1CC[C@H](C(=O)N2CC[C@H](C)[C@H]2C(=O)N[C@H]2Cc3cccc(c3)-c3ccc4c(c3)c(c(-c3cccnc3[C@H](C)OC)n4CC)CC(C)(C)COC(=O)[C@@H]3CCCN(N3)C2=O)C1 (atropisomer, axis not shown) [Example A494] | > 5.30 | 5.00 to 6.00 | < 5.00 | 5.00 to 6.00 | 5.00 to 6.00 | 5.00 to 6.00 |  |  | 
C=CC(=O)N1CC[C@H](C(=O)N2CCCCC[C@H]2C(=O)N[C@H]2Cc3cccc(c3)-c3ccc4c(c3)c(c(-c3cccnc3[C@H](C)OC)n4CC)CC(C)(C)COC(=O)[C@@H]3CCCN(N3)C2=O)C1 (atropisomer, axis not shown) [Example A496] | > 5.30 | 5.00 to 6.00 | < 5.00 | 5.00 to 6.00 | 5.00 to 6.00 | 5.00 to 6.00 |  |  | 
CCn1c(-c2cccnc2[C@H](C)OC)c2c3cc(ccc31)-c1cccc(c1)C[C@H](NC(=O)[C@H](C(C)C)N1CC[C@]3(CCN(C(=O)C#CC(C)(C)N(C)C)C3)C1=O)C(=O)N1CCC[C@H](N1)C(=O)OCC(C)(C)C2 (atropisomer, axis not shown) [Example A534, (2S)-2-((S)-7-(4-(dimethylamino)-4-methylpent-2-ynoyl)-1-oxo-2,7-diazaspiro[4.4]nonan-2-yl)-N-((6^3S,4S)-1^1-ethyl-1^2-(2-((S)-1-methoxyethyl)pyridin-3-yl)-10,10-dimethyl-5,7-dioxo-6^1,6^2,6^3,6^4,6^5,6^6-hexahydro-1^1H-8-oxa-1(5,3)-indola-6(1,3)-pyridazina-2(1,3)-benzenacycloundecaphane-4-yl)-3-methylbutanamide] | > 5.30 | 6.00 to 7.00 | 5.00 to 6.00 | 5.00 to 6.00 | 5.00 to 6.00 | 5.00 to 6.00 |  |  | 
C=CC(=O)N1CC[C@H]2[C@@H]1CN2C(=O)N(C)[C@H](C(=O)N[C@H]1Cc2nc(cs2)-c2ccc3c(c2)c(c(-c2cccnc2[C@H](C)OC)n3CC)CC(C)(C)COC(=O)[C@@H]2CCCN(N2)C1=O)C(C)C (atropisomer, axis not shown) [Example A547] | > 5.30 | 6.00 to 7.00 | 5.00 to 6.00 | 5.00 to 6.00 | 6.00 to 7.00 | 6.00 to 7.00 |  |  | 
CCn1c(-c2cccnc2[C@H](C)OC)c2c3cc(ccc31)-c1cccc(c1)C[C@H](NC(=O)[C@H](C(C)C)N1CC[C@@]3(CCN(C(=O)C#C[C@@H]4COCCN4C)C3)C1=O)C(=O)N1CCC[C@H](N1)C(=O)OCC(C)(C)C2 (atropisomer, axis not shown) [Example A549] | > 5.30 | 6.00 to 7.00 | 5.00 to 6.00 |  |  |  | 5.00 to 6.00 | 5.00 to 6.00 | 5.00 to 6.00
CCn1c(-c2cccnc2[C@H](C)OC)c2c3cc(ccc31)-c1cccc(c1)C[C@H](NC(=O)[C@H](C(C)C)N1CC[C@]3(CCN(C(=O)C#C[C@@]4(N(C)C)CCOC4)C3)C1=O)C(=O)N1CCC[C@H](N1)C(=O)OCC(C)(C)C2 (atropisomer, axis not shown) [Example A560] | > 5.30 | 6.00 to 7.00 | 6.00 to 7.00 | 5.00 to 6.00 | 5.00 to 6.00 | 5.00 to 6.00 |  |  | 
C=CC(=O)N1C[C@@H]2CN(C(=O)N(C)[C@H](C(=O)N[C@H]3Cc4nc(cs4)-c4ccc5c(c4)c(c(-c4cccnc4[C@H](C)OC)n5CC)CC(C)(C)COC(=O)[C@@H]4CCCN(N4)C3=O)C(C)C)[C@@H]2C1 (atropisomer, axis not shown) [Example A561] | > 5.30 | 6.00 to 7.00 | 5.00 to 6.00 | 5.00 to 6.00 | 6.00 to 7.00 | 5.00 to 6.00 |  |  | 
